These results are taken from patent US20050014692A1, “Lactate dehydrogenase as a novel target and reagent for diabetes therapy” (priority 2003, published 2005).

Entries after “also recorded” stand apart in the source; their conditions may differ.

The subject of experiment [1] is glycerol kinase overexpressing 832/13 cells. Briefly: 13C studies in glycerol kinase overexpressing 832/13 cells (insulin secretion, lactate output, pyruvate cycling). It counts as cell-based, rat. From the text: FIG. 9 depicts the effect of glycerol kinase overexpression in 832/13 cells on insulin excretion, lactate output and pyruvate cycling.
In contrast, pyruvate cycling and lactate output are higher in response to glycerol than to glucose.

The subject of a further experiment is 832/13 cells. Nature of the experiment: Insulin secretion assay in 832/13 cells (radioimmunoassay). It is filed as cell-based, rat. As for the experimental part: FIG. 3. Stimulation of insulin secretion by lactate, pyruvate, and glucose in 832/13 cells. Confluent, insulin secreting 832/13 cells were stimulated for 2 hours with various concentrations of secretagogues as indicated in the figure, and IS was determined by radioimmunoassay of the cell supernatant.
FIG. 4. The effect of rat LDHA overexpression on glucose, pyruvate, and lactate-stimulated insulin secretion in 832/13 cells. 832/13 cells were treated with adenovirus expressing rat LDHA (AdLDH) and beta-galactosidase (Adbetagal), respectively. The LDH activity in cell extracts was monitored by the decrease in absorbance at 340 nm (insert) and the insulin response to glucose, pyruvate, and lactate was examined by radioimmunoassay.
FIG. 7B. The effect of the LDH inhibitor oxamate on insulin secretion in 832/13 cells. Cells were incubated with ^13C labeled glucose for 4 hours in the presence or absence of oxamate.
FIG. 14. The effect of mitLDHA and LDHA on fuel-mediated IS in the 832/13 cells. The inset depicts the activity of LDH for each experiment.
The cell line 832/13 was created from INS-1 insulinoma β-cells as described earlier (Hohmeier et al. (2000) Diabetes 49:424430). Cells were cultured in RPMI-1640 medium containing 11 mM glucose supplemented with 10% fetal bovine serum, 10 mM HEPES, 2 mM glutamine, 1 mM sodium pyruvate and […] β-mercaptoethanol. Media was routinely changed every second day. […]
Insulin secretion was assayed in HEPES buffered saline solution (HBSS) (114 mM NaCl, 4.7 mM KCl, 1.2 mM KH2PO4, 1.16 mM MgSO4, 20 mM HEPES, 2.5 mM CaCl2, 25.5 mM NaHCO3, pH 7.2 containing 0.2% bovine serum albumin (essentially fatty acid free). Cells were washed in 1 ml of HBSS, preincubated in 1.5 ml of HBSS for 2 hour prior to a 2 hour incubation in the presence of secretagogues as indicated in the figures. The insulin levels were determined by radioimmunoassay with the Coat-A-Count kit (ICN Pharmaceuticals, Costa Mesa, Calif.) and lactate output was determined with a Lactate Reagent kit (Sigma, St. Louis, Mo.) according to protocols outlined by the manufacturer.

Experiment [2] deals with cell lines derived from rat INS-1 cells. Conditions: glucose-responsive clones; in direct correlation with changes in pyruvate cycling; cited from earlier work.

As to `OCC(O)CO` [glycerol], in experiment [1], the “lactate output, compared with glucose” value is “higher”; the “pyruvate cycling, compared with glucose” value is “higher”; the “stimulation of insulin secretion, compared with glucose” value was “to the same extent”.
`CC(O)C(=O)O` (centres unmarked) [lactate]: the “stimulation of insulin secretion as secretagogue” value was “as effective as the other two fuels; also recorded: as effective as glucose or pyruvate” in the experiment on 832/13 cells (832/13 cells overexpressing LDHA (AdLDH treated)); “poor secretagogue; also recorded: only a weak stimulator” with 832/13 cells (832/13 cells without LDHA overexpression, 2 hours, relative to glucose or pyruvate); “poor secretagogue” in the experiment with 832/13 cells (832/13 cells without LDHA overexpression, 2 hours, relative to glucose or pyruvate, listed as Lactate).
`O=C(O)Cc1ccccc1` [phenylacetic acid]: the “effect on glucose-stimulated IS” value in experiment [2] is recorded as “impaired”.
In the case of malate in the form of methyl ester, the “effect on glucose-stimulated IS” value in experiment [2] is recorded as “potentiated”.
